The record followed here is US9079895B2, “Morpholino compounds, uses and methods” (University of Dundee, priority 2012, dated 2015).

Series [1] concerns the target Alpha1D adrenergic receptor (Homo sapiens (Human), UniProt P25100). In words: Secondary radioligand binding assay, Alpha1D. The conditions noted are these: average of at least two experiments. The method, then: 1. Secondary Radioligand Binding Assays
(§1) The detailed experimental protocols for the radioligand and functional receptor assays are available on the NIMH PDSP website at http://pdsp.med.unc.edu/UNC-CH %20Protocol %20Book.pdf.
Raw data (dpm) representing total radioligand binding (i.e. specific+non-specific binding) are plotted as a function of the logarithm of the molar concentration of the competitor (i.e. test or reference compound).
The method is carried out in the manner described for the serotonin receptor assay above, except where described below. Eleven dilutions (5× assay concentration) of the test and reference (see Table 20) compounds are prepared in the appropriate buffer by serial dilution, as previously described. Radioligand is diluted to five times the assay concentration (see Table 21) in the appropriate buffer.
The 250 μl reactions are incubated at room temperature and shielded from light (to prevent photolysis of light-sensitive ligands) for 1 hour (for α1 receptors, 40 min for α2 receptors, and 1.5 hours for β receptors), then harvested by rapid filtration onto Whatman GF/B glass fiber filters pre-soaked with 0.3% polyethyleneimine using a 96-well Brandel harverster. Four rapid 500-μl washes are performed with chilled distilled water (for α1 and β receptors) or 0.1% polyethyleneimine (for α2 receptors) to reduce non-specific binding. Filters are placed in 6 ml scintillation tubes and allowed to dry overnight and the samples are treated to obtain data as described above.

A further series deals with 5HT1b receptor (Homo sapiens (Human), UniProt P28222). As to the kind of experiment: Secondary radioligand binding assay, 5HT1b. The conditions noted are these: average of at least two experiments.
A further series addresses dopamine D2 receptor (Homo sapiens (Human), UniProt P14416). As to the kind of experiment: Functional assay against the dopamine D2 receptor. Type of series: cell-based. As to conditions: data not shown.
Source text: as §1

The target in a further series is dopamine D4 receptor (Homo sapiens (Human), UniProt P21917). In words: Functional assay against the dopamine D4 receptor. Type of series: cell-based. The conditions noted are these: data not shown.
Source text: as §1

The next series deals with hERG (Homo sapiens (Human), UniProt Q12809). In words: hERG assay (PatchXpress patch clamp). Type of series: cell-based. The method, then:
2. hERG Assay hERG activity was assayed by the patch clamp method on a PatchXpress platform and by FluxOR T1+ assays.
For orientation: Block of hERG is tested as a sign of cardiac risk.

Series [2] is described as follows: Metabolic stability assay (in vitro), mouse hepatic microsomes. Type of series: in vitro ADME. As to conditions: mouse liver microsomes, 0.5 μM test compound. As to the method: 3. Metabolic Stability Assay (In Vitro)
Metabolic stability was assessed, generating the in vitro intrinsic clearance (Cli) following incubation of test compound with mouse hepatic microsomes. The assay was performed as previously described (Ruda et al. (2010), “Aryl Phosphoramidates of 5-phosho erythronohydroxamic acid, a new class of potent trypanocidal agents”, J. Med. Chem. 53, pp 6071-6078).
Briefly, each test compound (0.5 μM) was incubated with pooled female mouse liver microsomes (Tebu-Bio, UK; 0.5 mg/ml 50 mM potassium phosphate buffer, pH7.4) and the reaction started with addition of excess NADPH (8 mg/ml 50 mM potassium phosphate buffer, pH7.4) Immediately, at time zero, then at 3, 6, 9, 15 and 30 minutes an aliquot (50 μl) of the incubation mixture was removed and mixed with acetonitrile (100 μl) to stop the reaction. Internal standard was added to all samples. […]
XLfit (IDBS, UK) was used to calculate the exponential decay and consequently the rate constant (k) from the ratio of peak area of test compound to internal standard at each timepoint. The rate of intrinsic clearance (CLi) of each compound was then calculated using the following equation (1): CLi(ml/min/g liver)=k×V×Microsomal protein yield (1) where V (ml/mg protein) is the incubation volume/mg protein added and microsomal protein yield is taken as 52.5 mg protein/g liver. […]

Sequence of Alpha1D adrenergic receptor (P25100 whole entry): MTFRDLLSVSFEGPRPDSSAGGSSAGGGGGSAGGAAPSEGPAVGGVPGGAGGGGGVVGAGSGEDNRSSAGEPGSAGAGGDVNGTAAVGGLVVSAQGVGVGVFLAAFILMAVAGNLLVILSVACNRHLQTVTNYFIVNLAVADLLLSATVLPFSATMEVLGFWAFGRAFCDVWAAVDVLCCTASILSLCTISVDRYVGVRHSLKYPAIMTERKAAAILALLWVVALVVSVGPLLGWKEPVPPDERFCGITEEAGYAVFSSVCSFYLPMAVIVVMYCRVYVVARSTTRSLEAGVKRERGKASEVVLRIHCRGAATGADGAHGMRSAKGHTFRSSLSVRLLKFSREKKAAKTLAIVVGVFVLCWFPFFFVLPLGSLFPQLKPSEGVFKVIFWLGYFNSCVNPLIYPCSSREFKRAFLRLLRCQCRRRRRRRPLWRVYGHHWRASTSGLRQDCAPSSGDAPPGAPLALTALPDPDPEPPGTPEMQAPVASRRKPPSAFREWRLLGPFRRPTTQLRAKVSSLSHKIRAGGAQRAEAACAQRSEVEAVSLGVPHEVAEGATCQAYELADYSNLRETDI
Sequence of hERG (Q12809 whole entry): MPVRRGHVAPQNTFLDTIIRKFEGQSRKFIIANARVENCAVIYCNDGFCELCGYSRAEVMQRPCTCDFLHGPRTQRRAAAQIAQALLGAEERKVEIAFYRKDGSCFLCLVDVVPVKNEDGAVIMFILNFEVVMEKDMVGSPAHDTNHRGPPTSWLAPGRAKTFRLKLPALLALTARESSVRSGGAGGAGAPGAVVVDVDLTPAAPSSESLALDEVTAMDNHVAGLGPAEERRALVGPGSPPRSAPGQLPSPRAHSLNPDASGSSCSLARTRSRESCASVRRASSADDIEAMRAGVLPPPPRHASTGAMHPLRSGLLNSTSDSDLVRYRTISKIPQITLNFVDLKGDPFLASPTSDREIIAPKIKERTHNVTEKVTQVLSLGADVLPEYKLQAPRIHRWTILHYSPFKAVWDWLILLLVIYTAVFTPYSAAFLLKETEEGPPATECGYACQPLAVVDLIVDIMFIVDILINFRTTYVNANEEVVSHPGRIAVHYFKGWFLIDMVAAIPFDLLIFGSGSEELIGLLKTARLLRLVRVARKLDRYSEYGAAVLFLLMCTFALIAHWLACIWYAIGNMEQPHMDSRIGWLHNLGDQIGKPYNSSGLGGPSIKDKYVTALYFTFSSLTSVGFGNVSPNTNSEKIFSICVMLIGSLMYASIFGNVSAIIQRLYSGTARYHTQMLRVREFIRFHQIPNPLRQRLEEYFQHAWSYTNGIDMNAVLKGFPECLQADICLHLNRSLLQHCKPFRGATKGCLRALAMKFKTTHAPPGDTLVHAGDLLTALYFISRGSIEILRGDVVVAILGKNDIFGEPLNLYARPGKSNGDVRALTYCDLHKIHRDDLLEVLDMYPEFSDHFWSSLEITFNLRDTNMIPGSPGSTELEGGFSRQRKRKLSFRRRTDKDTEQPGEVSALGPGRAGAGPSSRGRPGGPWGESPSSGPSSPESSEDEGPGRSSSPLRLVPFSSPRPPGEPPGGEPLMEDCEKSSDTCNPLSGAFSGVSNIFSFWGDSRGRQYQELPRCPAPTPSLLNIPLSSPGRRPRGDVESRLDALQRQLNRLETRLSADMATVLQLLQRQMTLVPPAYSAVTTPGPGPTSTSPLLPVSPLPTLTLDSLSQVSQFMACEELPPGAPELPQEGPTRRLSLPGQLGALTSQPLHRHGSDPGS
Sequence of dopamine D2 receptor (P14416 whole entry, species assumed): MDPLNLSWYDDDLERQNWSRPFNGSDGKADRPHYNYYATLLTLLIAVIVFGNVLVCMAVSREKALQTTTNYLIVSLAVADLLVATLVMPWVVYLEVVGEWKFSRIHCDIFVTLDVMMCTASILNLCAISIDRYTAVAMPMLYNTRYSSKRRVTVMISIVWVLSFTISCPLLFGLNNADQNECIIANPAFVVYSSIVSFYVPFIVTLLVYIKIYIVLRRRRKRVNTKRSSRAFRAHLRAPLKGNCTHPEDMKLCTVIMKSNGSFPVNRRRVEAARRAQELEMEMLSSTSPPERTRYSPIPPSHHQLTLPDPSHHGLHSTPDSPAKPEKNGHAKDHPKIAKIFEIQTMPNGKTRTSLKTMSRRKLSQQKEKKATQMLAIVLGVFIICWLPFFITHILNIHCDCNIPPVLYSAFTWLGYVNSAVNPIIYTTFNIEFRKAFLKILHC
Sequence of 5HT1b receptor (P28222 whole entry): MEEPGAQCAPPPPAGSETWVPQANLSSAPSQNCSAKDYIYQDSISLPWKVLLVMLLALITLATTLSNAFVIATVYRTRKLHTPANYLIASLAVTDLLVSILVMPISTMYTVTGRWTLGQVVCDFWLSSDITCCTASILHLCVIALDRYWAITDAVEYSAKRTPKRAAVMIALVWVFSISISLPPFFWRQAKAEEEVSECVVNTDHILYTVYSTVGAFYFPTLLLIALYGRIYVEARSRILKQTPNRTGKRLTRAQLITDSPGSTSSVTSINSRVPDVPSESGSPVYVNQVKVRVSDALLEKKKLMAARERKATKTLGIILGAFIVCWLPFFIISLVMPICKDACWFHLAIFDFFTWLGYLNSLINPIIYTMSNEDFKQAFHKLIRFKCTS
Sequence of dopamine D4 receptor (P21917 whole entry, species assumed): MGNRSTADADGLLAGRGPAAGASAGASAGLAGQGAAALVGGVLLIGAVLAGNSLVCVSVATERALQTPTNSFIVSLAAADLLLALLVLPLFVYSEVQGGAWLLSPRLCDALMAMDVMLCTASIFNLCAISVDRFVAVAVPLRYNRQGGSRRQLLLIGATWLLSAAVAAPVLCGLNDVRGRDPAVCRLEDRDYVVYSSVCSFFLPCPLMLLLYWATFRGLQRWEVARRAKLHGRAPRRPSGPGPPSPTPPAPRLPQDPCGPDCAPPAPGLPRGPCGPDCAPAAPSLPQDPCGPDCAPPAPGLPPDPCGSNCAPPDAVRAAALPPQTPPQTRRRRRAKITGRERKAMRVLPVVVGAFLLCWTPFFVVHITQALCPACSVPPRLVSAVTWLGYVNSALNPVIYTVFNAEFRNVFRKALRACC
Description for 5HT1b receptor: Assay Buffer: Standard Binding Buffer (50 mM Tris-HCl, 10 mM MgCl2, 1 mM EDTA, pH 7.4)
Membrane Fraction Source: Transiently or stably transfected cell lines (e.g., HEK293, COS, CHO, NIH3T3)
Radioligand is diluted to five times the assay concentration (see Table 18) in Standard Binding Buffer. Typically, the assay concentration of radioligand is a value between one half the KD and the KD of a particular radioligand at its target. 50 μl aliquots of radioligand are dispensed into the wells of a 96-well plate containing 100 μl of Standard Binding Buffer. Then, duplicate 50 μl aliquots of the test and reference compound dilutions are added.
The 250 μl reactions are incubated at room temperature and shielded from light (to prevent photolysis of light-sensitive ligands) for 1.5 hours, then harvested by rapid filtration onto Whatman GF/B glass fiber filters pre-soaked with 0.3% polyethyleneimine using a 96-well Brandel harverster. Four rapid 500 μl washes are performed with chilled Standard Binding Buffer to reduce non-specific binding. Filters are placed in 6 ml scintillation tubes and allowed to dry overnight. […] The tubes are capped, labeled, and counted by liquid scintillation counting. […] The filter mats are dried, then scintillant is melted onto the filters and the radioactivity retained on the filters is counted in a Microbeta scintillation counter. […]

One may read the Ki as the dissociation constant of the complex between target and ligand, obtained from inhibition or displacement. A high value points to lower affinity. Molecule `CC1Cc2ccccc2N1C(=O)CN1CCO[C@@H](COc2cccc(Cl)c2)C1` (some centres unmarked) [Compound 65] returned a Ki in series [1] greater than 10 µM.

With `O=C(CN1CCO[C@H](COc2cccc(Cl)c2)C1)N1CCc2ccccc21` [Compound 22s, (S)-2-(2-((3-Chlorophenoxy)methyl)morpholino)-1-(indolin-1-yl)ethanone], the Ki at 5HT1b receptor was determined as 7.77 µM.

`O=C(CN1CCO[C@@H](COc2cccc(Cl)c2)C1)N1CCc2ccccc21` [Compound 22r, (R)-2-(2-((3-chlorophenoxy)methyl)morpholino)-1-(indolin-1-yl)ethanone]: at dopamine D2 receptor, the “function at the dopamine D2 receptor” value was “inverse agonists”. The “function at the dopamine D4 receptor” value on dopamine D4 receptor is given as “inverse agonists”.

`COc1cccc(OC[C@@H]2CN(CC(=O)N3CCc4ccccc43)CCO2)c1` [Compound 24s, (S)-1-(Indolin-1-yl)-2-(2-((3-methoxyphenoxy)methyl)morpholino)ethanone] displayed a Ki on 5HT1b receptor of 4.83 µM.

As to `c1cncc(OC[C@@H]2CN(CCN3CCc4ccccc43)CCO2)c1` [Compound 21s, (S)-4-(2-(Indolin-1-yl)ethyl)-2-((pyridin-3-yloxy)methyl)morpholine], at dopamine D2 receptor, the “function at the dopamine D2 receptor” value is on record as “inverse agonists”. Also, on hERG (read-out: hERG inhibition pEC50 (converted)), the EC50 is 1.51 µM. Also, the “function at the dopamine D4 receptor” value at dopamine D4 receptor was “inverse agonists”.

Molecule `Cc1ccccc1OC[C@H]1CN(CC(=O)N2c3ccccc3CC2C)CCO1` (some centres unmarked) [Compound 66] had a Ki in series [1] greater than 10 µM.

In series [1], `Cc1ncccc1OC[C@@H]1CN(CC(=O)N2c3ccccc3C[C@H]2C)CCO1` [Compound 61] had a Ki greater than 10 µM.

Regarding `Clc1cccc(OC[C@@H]2CN(CCN3CCc4ccccc43)CCO2)c1` [Compound 23s, (S)-2-((3-chlorophenoxy)methyl)-4-(2-(indolin-1-yl)ethyl)morpholine], the Ki in series [1] is 4.18 µM.

As for `Clc1cncc(OC[C@@H]2CN(CCN3CCc4ccccc43)CCO2)c1` [Compound 27s, (S)-2-(((5-Chloropyridin-3-yl)oxy)methyl)-4-(2-(indolin-1-yl)ethyl)morpholine], on hERG, the “hERG inhibition pEC50” value is given as 5.51+/−0.13. The “mouse hepatic microsomal Cli (intrinsic clearance)” value in series [2] is 25 mL/min/g.

Molecule `CC1Cc2ccccc2N1C(=O)CN1CCO[C@H](COc2cccc(Cl)c2)C1` (some centres unmarked) [Compound 64] gave a Ki in series [1] greater than 10 µM.
